From patent US11452686B2, “Cosmetic active substance obtained through bioconversion by Lactobacillus arizonensis of its original substrate, method for obtaining same composition comprising same, and uses” (SOCIETE INDUSTRIELLE LIMOUSINE D'APPLICATION BIOLOGIQUE, priority 2019, dated 2022) come the findings set out here.

Holding throughout (type): cell-based
One test deals with filaggrin. In words: Filaggrin synthesis by immunostaining on normal human keratinocytes subjected to a dry environment. How it is done: Thus, the use of an active substance according to the invention makes it possible to restore the epidermal differentiation process in order to obtain a cohesive structure. The second study on the keratinocytes makes it possible to compare the effect of the products of the various examples 1 to 5. To do this, their capacity to restore the synthesis of filaggrin by human keratinocytes subjected to a dry environment is compared. This study was carried out by immunocytology on normal human keratinocytes subjected to a dry environment. The procedure is as follows:
Normal human keratinocytes are seeded and incubated at 37° C. in an atmosphere containing 5% CO2 for several days.
Then, the keratinocytes are either incubated at 37° C. under 5% CO2 in an environment of 40% relative humidity in order to mimic a dry environment, or they are kept in an environment that is saturated with humidity (82% relative humidity) in the presence or absence of the products of examples 1 to 5 or in the presence of a sodium lactate solution at 45 g/L (pH 5.4).
After 24 h, immunostaining is performed using an anti-filaggrin primary antibody and a coupled secondary antibody, Alexa Flor® 488.
The nuclei are stained with a DAPI solution.
Viewing is performed using an IX 70 microscope (Olympus) coupled to an image analysis system (NIS-Elements software, Nikon).
The synthesized filaggrin is proportional to the intensity of green fluorescence present on the keratinocytes. A quantitative analysis of the images was performed using Matlab® software. The results are expressed in arbitrary units (AU) in Table 6 (Effect of the various examples on their ability to restore the synthesis of filaggrin in human keratinocytes subjected to water stress).

In a further test the test system is Collagen I. In words: Collagen I mRNA expression by quantitative PCR on normal human fibroblasts. Conditions: 10 ng/mL (positive control). As to the method: (§1) This study was carried out by PCR on normal human fibroblasts.
(§2) I. Culturing and Treatment of Fibroblasts: • Normal human fibroblasts are inoculated into a culture medium and then incubated at 37° C. in an atmosphere containing 5% CO2. • Then, the fibroblasts are cultured in the presence or absence of the active substance of example 1 at 0.5% and 1% (V/V).
(§3) TGF-β at 10 ng/mL is used as a positive control. Finally, the fibroblasts are recovered and the total RNAs extracted.
(§4) The RNAs were reverse-transcribed, and the complementary DNAs obtained were analyzed by the quantitative PCR technique. The mRNAs of the RPS18 protein, internal reference control, were analyzed in parallel with the mRNAs of Coll I, Coll III, Coll IV, Coll VII and HAS-2.
(§5) The quantification of the incorporation of fluorescence (SYBR Green) is measured continuously using a thermal cycler. The RQ (relative quantification) analysis is performed using software.

The next test concerns Collagen III. In words: Collagen III mRNA expression by quantitative PCR on normal human fibroblasts. Conditions: 10 ng/mL (positive control). As to the method: as §1, §2, §3, §4, §5
In another test the test system is Collagen IV. In words: Collagen IV mRNA expression by quantitative PCR on normal human fibroblasts. Conditions: 10 ng/mL (positive control). As to the method:
as §1, §2, §3, §4, §5

The test system of the next test is Collagen VII. In words: Collagen VII mRNA expression by quantitative PCR on normal human fibroblasts. Conditions: 10 ng/mL (positive control). How it is done: as §1, §2, §3, §4, §5
Test [1] deals with HAS-2 (hyaluronan synthase 2). In words: HAS-2 mRNA expression by quantitative PCR on normal human fibroblasts. Conditions: 10 ng/mL (positive control). As to the method: as §1, §2, §3, §4, §5

For the compound `CC(O)C(=O)[O-].[Na+]` (stereo not drawn) [Sodium lactate], the “Restoration of filaggrin synthesis (in words)” value in the test on filaggrin (human keratinocytes subjected to water stress) is on record as “does not restore filaggrin synthesis”. This compound also displayed a Synthesis of filaggrin in the test with filaggrin (keratinocytes, water stress (40% relative humidity), 24 h, product at 0.5%) of 909 AU. The “Ability to restore filaggrin synthesis” value with filaggrin (keratinocytes, water stress, product at 0.5%) amounted to 7%.
With TGF-β, in the test on Collagen I, the “Collagen I Efficacy/control” value is on record as “+126%” and the “Collagen I Expression” value amounted to 226%. In addition, in the test on Collagen III, the “Collagen III Efficacy/control” value is given as “+39%” and the “Collagen III Expression” value is recorded as 139%. Further, in the test with Collagen IV, the “Collagen IV Efficacy/control” value was “+218%” and the “Collagen IV Expression” value stood at 318%. Also, in the test with Collagen VII, the “Collagen VII Efficacy/control” value is “+234%” and the “Collagen VII Expression” value amounted to 334%. Further, the “HAS-2 Expression” value in test [1] was 78%.
